Assays:
[1] = system: Neonatal foreskin fibroblasts (NFF); test: Normal cell toxicity, MTT proliferation assay, NFF; format: cell-based, human; conditions: Homo sapiens, 120 h; NFF fibroblast, cultured 5 days, MTT
Method: (§1) Neonatal foreskin fibroblasts (NFF) were a gift from Dr. Peter Parsons (Queensland Institute of Medical Research). RK-13 (rabbit kidney) cells were obtained from Miller Whalley (Macquarie University). Both cell types were cultured in RPMI supplemented with 10% FCS (CSL, Australia), penicillin (100 U/ml), streptomycin ([…]), L-glutamine (2 mM) and sodium bicarbonate (1.2 g/L), and cultured at 37° C. in a humidified atmosphere of 5% CO2.
(§2) IC50 values were determined for each cell line. Cells were seeded in 96-well plates at an appropriate cell density as determined from growth kinetics analysis. NFFs were cultured for 5 days and RK-13s for 24 hrs in the absence and presence of the test compounds. Cell proliferation was assessed after the addition of 20 μl of 3-4,5 dimethylthiazol-2,5-diphenyl tetrazolium bromide (MTT, 2.5 mg/ml in PBS, Sigma) for 3-4 hrs at 37° C. according to manufacturer's instructions. IC50 values were calculated from semi-log plots of % of control proliferation on the y-axis against log dose on the x-axis.
Duplicate cytotoxicity assays against NFF cells were conducted with dehydroequol (DHE), 4,9-dihydroxy-14,15-dimethoxy-12a-(3′,4′-dimethoxyphenyl)-3,10-dimethyl-2,11-dioxa-(1H,12H)-6b,6c,12a,16b-tetrahydronaphtho[1,2-g]chrysene (2) from Example 6.1 and cisplatin.

[2] = system: RK-13 (rabbit kidney) cells; test: Normal cell toxicity, MTT proliferation assay, rabbit kidney cells; format: cell-based; conditions: Oryctolagus cuniculus, 24 hrs
Method: as §1, §2

[3] = system: A2780 (Ovarian); test: In vitro cytotoxicity, MTT proliferation assay, A2780; format: cell-based, human; conditions: Homo sapiens
Method: (§3) The human pancreatic cancer cell line, HPAC (CRL-2119) was routinely cultured in 1:1 mixture DMEM (Sigma) plus Ham's F12 (Sigma) medium containing HEPES (15 mM), insulin (0.002 mg/ml), transferrin (0.005 mg/ml), hydrocortisone, (40 ng/ml), epidermal growth factor (10 ng/ml). The ovarian cancer cell line CP70 was obtained as a gift from Dr. Gil Mor (Yale University) and cultured in a 1:1 mixture DMEM plus Ham's F12 medium, and SKOV-3 was purchased from ATCC and cultured in McCoy's 5a medium. The breast cancer cell line MDA-MB-468 cultured in Leibovitz's L-15 medium.
(§4) All cultures were supplemented with 10% FCS(CSL, Australia), penicillin (100 U/ml), streptomycin ([…]), L-glutamine (2 mM) and sodium bicarbonate (1.2 g/L), and cultured at 37° C. in a humidified atmosphere of 5% CO2. All remaining cell lines were purchased from ATCC (Maryland, USA) except where noted.
as §2

[4] = system: ovarian cancer cell line CP70; test: In vitro cytotoxicity, MTT proliferation assay, CP70; format: cell-based, human; conditions: Homo sapiens
Method: as §3, §4, §2

[5] = system: SKOV-3 (Ovarian); test: In vitro cytotoxicity, MTT proliferation assay, SKOV-3; format: cell-based, human; conditions: Homo sapiens, SK-OV-3; Ovarian SKOV-3
Method: as §3, §4, §2

[6] = system: PC3 (Prostate); test: In vitro cytotoxicity, MTT proliferation assay, PC3; format: cell-based, human; conditions: Homo sapiens
Method: as §3, §4, §2

[7] = system: LNCaP (Prostate); test: In vitro cytotoxicity, MTT proliferation assay, LNCaP; format: cell-based, human; conditions: Homo sapiens
Method: as §3, §4, §2

[8] = system: DU145 (Prostate); test: In vitro cytotoxicity, MTT proliferation assay, DU145; format: cell-based, human; conditions: Homo sapiens, DU-145
Method: as §3, §4, §2

[9] = system: MCF-7 (Breast); test: In vitro cytotoxicity, MTT proliferation assay, MCF-7; format: cell-based, human; conditions: Homo sapiens, MCF7; Breast MCF-7
Method: as §3, §4, §2

[10] = system: breast cancer cell line MDA-MB-468; test: In vitro cytotoxicity, MTT proliferation assay, MDA-MB-468; format: cell-based, human; conditions: Homo sapiens; Breast MDA-MB-468
Method: as §3, §4, §2

[11] = system: HTB-138 (Glioma); test: In vitro cytotoxicity, MTT proliferation assay, HTB-138; format: cell-based, human; conditions: Homo sapiens; Glioma HTB-138
Method: as §3, §4, §2

[12] = system: human pancreatic cancer cell line, HPAC (CRL-2119); test: In vitro cytotoxicity, MTT proliferation assay, CRL-2119; format: cell-based; conditions: Homo sapiens, HPAC; Pancreatic CRL-2119
Method: as §3, §4, §2

[13] = system: RPMI-8226 (Leukemic); test: In vitro cytotoxicity, MTT proliferation assay, RPMI-8226; format: cell-based; conditions: Homo sapiens; Leukemic RPMI-8226
Method: as §3, §4
(§5) IC50 values were determined for each cell line. Cells were seeded in 96-well plates at an appropriate cell density as determined from growth kinetics analysis. […] Cell proliferation was assessed after the addition of 20 μl of 3-4,5 dimethylthiazol-2,5-diphenyl tetrazolium bromide (MTT, 2.5 mg/ml in PBS, Sigma) for 3-4 hrs at 37° C. according to manufacturer's instructions. IC50 values were calculated from semi-log plots of % of control proliferation on the y-axis against log dose on the x-axis.

[14] = system: CCRF-CEM (Leukemic); test: In vitro cytotoxicity, MTT proliferation assay, CCRF-CEM; format: cell-based; conditions: Homo sapiens
Method: as §3, §4, §5

[15] = system: NCI-H23 (Lung); test: In vitro cytotoxicity, MTT proliferation assay, NCI-H23; format: cell-based; conditions: Homo sapiens
Method: as §3, §4, §5

[16] = system: NCI-H460 (Lung); test: In vitro cytotoxicity, MTT proliferation assay, NCI-H460; format: cell-based, human; conditions: Homo sapiens
Method: as §3, §4, §2

[17] = system: HT-29 (Colorectal); test: In vitro cytotoxicity, MTT proliferation assay, HT-29; format: cell-based, human; conditions: Homo sapiens; Colorectal HT-29
Method: as §3, §4, §2

[18] = system: HCT-15 (Colorectal); test: In vitro cytotoxicity, MTT proliferation assay, HCT-15; format: cell-based, human; conditions: Homo sapiens; Colorectal HCT-15
Method: as §3, §4, §2

[19] = system: MM200 (Melanoma); test: In vitro cytotoxicity, MTT proliferation assay, MM200; format: cell-based, human; conditions: Homo sapiens
Method: as §3, §4, §2

[20] = system: MM96L (Melanoma); test: In vitro cytotoxicity, MTT proliferation assay, MM96L; format: cell-based, human; conditions: Homo sapiens
Method: as §3, §4, §2

[21] = Oral pharmacokinetics in mice; format: in vivo, female BALB/c mice; conditions: female, BALB/c, mouse, blood, 50 mg/kg, oral gavage, read-out: Free concentration in blood
Method: 4,9-Dihydroxy-14,15-dimethoxy-12a-(3′,4′-dimethoxyphenyl)-3,10-dimethyl-2,11-dioxa-(1H,12H)-6b,6c,12a,16b-tetrahydronaphtho[1,2-g]chrysene (2) from Example 6.1 was prepared as homogenous suspensions in 1% CMC (m:v, water). The Cpd. 2 formulation was delivered orally by gavage to female BALB/c mice at a dosage of 50 mg/kg. Three animals were allocated to each time point (15 min, 30 min, 1 hr, 4 hr and 24 hr). At each respective time point, animals were euthanased by cervical dislocation and blood collected. Free Cpd.

Oc1ccc(C2=Cc3ccc(O)cc3OC2)cc1 [DHE, 3-(4-hydroxyphenyl)chrom-3-en-7-ol]
IC50 [1]: > 150 µM | IC50 [2]: > 150 µM | IC50 [3]: 1.7 ± 0.61 µM | IC50 [4]: 1.69 ± 0.62 µM | IC50 [5]: 21.8 ± 4.65 µM | IC50 [6]: 9.09 ± 8.12 µM | IC50 [7]: 4.8 ± 3.8 µM | IC50 [8]: 5.95 ± 1.5 µM | IC50 [9]: 21.5 ± 13.2 µM | IC50 [10]: 7.9 ± 3.5 µM | IC50 [11]: 7.35 ± 0.89 µM | IC50 [12]: 56.6 ± 16.8 µM | IC50 [13]: 3.72 ± 0.08 µM | IC50 [14]: 1.7 ± 0.68 µM | IC50 [15]: 8.75 ± 7.2 µM | IC50 [16]: 10.6 ± 3.8 µM | IC50 [17]: 50.5 ± 21.9 µM | IC50 [18]: 24.4 ± 12.6 µM | IC50 [19]: 4.8 µM | IC50 [20]: 4.7 µM | concentration at 15 min ([21]; Time 0.25 (15 min)): 3300 nM | concentration at 30 min ([21]; Time 0.5 (30 min)): 2900 nM | concentration at 1 h ([21]; Time 1 (1 hr)): 1500 nM | concentration at 4 h ([21]; Time 4 (4 hr)): 1300 nM | concentration at 24 h ([21]; Time 24 (24 hr)): 150 nM

— patent US7700644B2, “Isoflavonoid dimers” (Novogen Research Pty Ltd, priority 2005, dated 2010)
